The values that follow come from ChEMBL document CHEMBL1641582, “Synthesis and in vitro evaluation of 2-amino-4-N-piperazinyl-6-(3,4-dimethoxyphenyl)-pteridines as dual immunosuppressive and anti-inflammatory agents” (Bioorg Med Chem Lett, 2011).

Assay [1] in a line: Immunosuppressive activity in human T cells assessed as inhibition of LFA1-mediated cell proliferation by mixed lymphocyte reaction assay. The format is functional, cell-based.
In the next assay the test system is PBMC. The experiment in a line: Antiinflammatory activity in human PBMC assessed as inhibition of LPS-induced TNFalpha production. Format: functional, cell-based.

For orientation: IC50 means the concentration at which inhibition is half-maximal. As to `Cc1ccc(-c2cnc3nc(N)nc(OC(C)C)c3n2)cc1C`, the IC50 worked out at 10000 nM in assay [1] and 6700 nM in the assay with PBMC.

For `COc1ccc(-c2cnc3nc(N)nc(NC(C)C)c3n2)cc1OC`, the IC50 came out at 600 nM in assay [1] and 300 nM in the assay on PBMC.

Take `COc1ccc(-c2cnc3nc(N)nc(N4CCN(C(=O)NCc5ccc(F)cc5)CC4)c3n2)cc1OC`: the IC50 was determined as 37 nM in assay [1] and 700 nM with PBMC.

As to `COc1ccc(-c2cnc3nc(N)nc(N4CCC(C)CC4)c3n2)cc1OC`, the IC50 amounted to 800 nM in assay [1] and 300 nM with PBMC.

Take `CC(C)Oc1nc(N)nc2ncc(-c3ccc(F)c(F)c3)nc12`: the IC50 is 10000 nM in assay [1] and 6600 nM in the assay with PBMC.

On to `COc1ccc(-c2cnc3nc(N)nc(NCCc4ccccc4)c3n2)cc1OC`, for which the half-inhibitory concentration (IC50) is 6000 nM in assay [1] and 7100 nM with PBMC.

Turning to `COc1ccc(-c2cnc3nc(N)nc(N4CCN(Cc5ccccc5)CC4)c3n2)cc1OC`, in the assay on PBMC, the IC50 was 90 nM.

For `COc1ccc(-c2cnc3nc(N)nc(N4CCN(C(=O)CCc5ccccc5)CC4)c3n2)cc1OC`, the IC50 in assay [1] came out at 100 nM; in the assay on PBMC, 10 nM.

Turning to `COc1ccc(-c2cnc3nc(N)nc(OC(C)C)c3n2)cc1OC`, the values for the IC50 (in assay [1]; in the assay with PBMC) were 400 nM and 2300 nM, respectively.

For `COc1ccc(-c2cnc3nc(N)nc(N4CCN(C(=O)COc5ccccc5)CC4)c3n2)cc1OC`, the IC50 in assay [1] was 4 nM; in the assay with PBMC, 80 nM.

On to `COc1ccc(-c2cnc3nc(N)nc(N4CCN(C(=O)Nc5ccc(F)cc5)CC4)c3n2)cc1OC`, for which the values for the IC50 (in assay [1]; with PBMC) were 7 nM and 510 nM, respectively.

In the case of `CCOc1nc(N)nc2ncc(-c3ccc(C#N)cc3)nc12`, the IC50 (in assay [1]; with PBMC) was over 10000 nM in each case.

Turning to `COc1ccc(-c2cnc3nc(N)nc(N4CCN(c5ccccc5)CC4)c3n2)cc1OC`, the IC50 stood at 400 nM in assay [1] and 50 nM in the assay on PBMC.

For the molecule `COc1ccc(-c2cnc3nc(N)nc(NCc4cccs4)c3n2)cc1OC`, the IC50 came to 4100 nM in assay [1] and 7200 nM with PBMC.

Take `CCOc1nc(N)nc2ncc(-c3ccc(C(F)(F)F)cc3)nc12`: the IC50 in assay [1] was 10000 nM; in the assay on PBMC it was over 10000 nM.

Consider `COc1ccc(-c2cnc3nc(N)nc(N4CCOCC4)c3n2)cc1OC`, for which the IC50 in assay [1] is 100 nM; in the assay with PBMC, 400 nM.

`COc1ccc(-c2cnc3nc(N)nc(N4CCN(C(=O)COc5ccc(Cl)cc5)CC4)c3n2)cc1OC`: the IC50 amounted to 0.5 nM in assay [1] and 77 nM in the assay with PBMC.

As to `CCOc1nc(N)nc2ncc(-c3cccc(OC)c3)nc12`, the IC50 was 8300 nM in assay [1] and 10000 nM in the assay with PBMC.

Consider `CC(C)Oc1nc(N)nc2ncc(-c3ccc(C(F)(F)F)cc3)nc12`, for which the IC50 in assay [1] was over 10000 nM; in the assay on PBMC it was 9100 nM.

On to `COc1ccc(-c2cnc3nc(N)nc(N4CCN(Cc5c(Cl)cccc5Cl)CC4)c3n2)cc1OC`, for which the IC50 in assay [1] came out at 7600 nM; in the assay on PBMC, 700 nM.

In the case of `COc1ccc(-c2cnc3nc(N)nc(N4CCN(c5cc(Cl)cc(Cl)c5)CC4)c3n2)cc1OC`, the values for the IC50 (in assay [1]; in the assay on PBMC) were 3400 nM and 500 nM, respectively.

For `COc1ccc(-c2cnc3nc(N)nc(NCc4ccccc4)c3n2)cc1OC`, the results for the IC50 (in assay [1]; with PBMC) were 13000 nM and 6500 nM, respectively.

`CCOc1nc(N)nc2ncc(-c3ccc(Cl)c(Cl)c3)nc12`: the IC50 (in assay [1]; in the assay on PBMC) was over 10000 nM in each case.

In the case of `CCOc1nc(N)nc2ncc(-c3ccc(CC)cc3)nc12`, the IC50 worked out at 8200 nM in assay [1] and 8500 nM in the assay with PBMC.

For `COc1ccc(-c2cnc3nc(N)nc(N4CCN(C(=O)Nc5ccc(C)cc5)CC4)c3n2)cc1OC`, the IC50 stood at 0.8 nM in assay [1] and 430 nM with PBMC.

Regarding `CCOc1ccc(-c2cnc3nc(N)nc(OC(C)C)c3n2)cc1`, the IC50 (in assay [1]; in the assay on PBMC) was 10000 nM in each case.

On to `CCOc1nc(N)nc2ncc(-c3ccc(F)c(F)c3)nc12`, for which the IC50 (in assay [1]; in the assay with PBMC) was over 10000 nM in each case.

Turning to `COc1ccc(-c2cnc3nc(N)nc(N4CCN(C(=O)Nc5ccc(C#N)cc5)CC4)c3n2)cc1OC`, the IC50 in assay [1] was determined as 74 nM; in the assay on PBMC, 630 nM.

Take `COc1ccc(-c2cnc3nc(N)nc(N4CCN(c5ccc(F)cc5)CC4)c3n2)cc1OC`: the figures for the IC50 (in assay [1]; with PBMC) were 100 nM and 50 nM, respectively.

Consider `COc1ccc(-c2cnc3nc(N)nc(N4CCN(Cc5ccccc5F)CC4)c3n2)cc1OC`, for which the IC50 in assay [1] came to 700 nM; in the assay on PBMC, 200 nM.

`COc1ccc(-c2cnc3nc(N)nc(OC(C)C)c3n2)cc1`: the IC50 in assay [1] was over 10000 nM; with PBMC it was 6200 nM.

Regarding `COc1ccc(-c2cnc3nc(N)nc(NC4CCCC4)c3n2)cc1OC`, the IC50 in assay [1] is 800 nM; with PBMC, 600 nM.

On to `COc1ccc(-c2cnc3nc(N)nc(N4CCSCC4)c3n2)cc1OC`, for which the results for the IC50 (in assay [1]; in the assay on PBMC) were 400 nM and 500 nM, respectively.

For `COc1ccc(-c2cnc3nc(N)nc(N4CCN(C(=O)Nc5cccc(C)c5)CC4)c3n2)cc1OC`, the figures for the IC50 (in assay [1]; with PBMC) were 7 nM and 100 nM, respectively.

Consider `CC(C)Oc1nc(N)nc2ncc(-c3ccc(C#N)cc3)nc12`, for which the 50% inhibitory concentration (IC50) in assay [1] was over 10000 nM; with PBMC, 6300 nM.

As to `COc1ccc(-c2cnc3nc(N)nc(N4CCN(c5ccc(C)cc5)CC4)c3n2)cc1OC`, the IC50 amounted to 300 nM in assay [1] and 10 nM in the assay with PBMC.

As to `CCOc1nc(N)nc2ncc(-c3ccc(OC)cc3)nc12`, the values for the IC50 (in assay [1]; in the assay on PBMC) were over 10000 nM and 4500 nM, respectively.

As for `COc1ccc(-c2cnc3nc(N)nc(N4CCN(C(=O)NCc5ccccc5)CC4)c3n2)cc1OC`, the IC50 in assay [1] came out at 18 nM.

Consider `COc1ccc(-c2cnc3nc(N)nc(N4CCN(Cc5ccc(C(C)(C)C)cc5)CC4)c3n2)cc1OC`, for which the values for the IC50 (in assay [1]; with PBMC) were 4300 nM and 700 nM, respectively.

Take `COc1ccc(-c2cnc3nc(N)nc(N4CCN(C(=O)Nc5ccccc5)CC4)c3n2)cc1OC`: the IC50 stood at 3.4 nM in assay [1] and 90 nM with PBMC.

With `COc1ccc(-c2cnc3nc(N)nc(N4CCN(C(=O)c5ccccc5)CC4)c3n2)cc1OC`, the IC50 (in assay [1]; with PBMC) was 400 nM throughout.
